Test results as given in US6552018B1, “Pyrazole derivatives” (Daiichi Pharmaceutical Co., Ltd., priority 1997, dated 2003).
≈ marks a conversion by molar mass, not a printed value. Counter-ions that a name gives are not always drawn.

Experiments:
Tumor cells PC-12 = experiment: Tumor cell growth inhibition (MTT), PC-12; assay type: cell-based; conditions: PC-12 cells, culturing for 3 days with compound, absorbance at 540 nm; for GI50: Rattus norvegicus, PC-12, 72 h, read-out: GI50, concentration of the compound which showed 50% inhibition on cell growth as compared with a control group, PC-12
Method: (§1) Tumor cells PC-12 and PC-6, which had been serially cultured in RPMI 1640 containing 10% fetal bovine serum, 2 mM L-glutamine, and 100 μg/ml of kanamycin sulfate, were inoculated to a 96-well microplate (1.0×10^3 cells-PC-12/150 μl/well; 5.0×10^3 cells-PC-6/150 μl/well). After 24-hour incuvation, 50 μl of a preparation containing each of the compounds of Examples 5 to 8 and Example 13 (hereinafter described) in a varied concentration was added to each well, followed by culturing for 3 days. A 5 mg/ml solution of 3-(4,5-dimethylthiazol-2-yl)-2,5-diphenyl-2H-tetrazolium bromide (MTT) was added in an amount of 20 μl per well. Four hours later, the culture broth was removed, 150 μl/well of dimethyl sulfoxide was added to the residue, and the absorbance was measured at 540 nm.

Tumor cells PC-6 = experiment: Tumor cell growth inhibition (MTT), PC-6; assay type: cell-based; conditions: Homo sapiens, 72 h, PC-6 cells, culturing for 3 days with compound, absorbance at 540 nm, read-out: GI50, concentration of the compound which showed 50% inhibition on cell growth as compared with a control group, PC-6
Method: as §1

| Structure (SMILES) | GI50 (Tumor cells PC-12) | GI50 (Tumor cells PC-6) | further results |
| --- | --- | --- | --- |
| Cc1c(/C=C/CN2CCN(c3cc(F)cc(F)c3)CC2)cnn1-c1ncccc1I (as salt: hydrochloride) |  |  | melting point: 212 to 216 °C (dec.) |
| Cc1c(/C=C/CN2CCN3c4cc(F)ccc4OCC3C2)cnn1-c1cc(N(C)C)nc(N)n1 (racemic) [Example 71, (+/−)-3-[3-[1-(2-Amino-6-dimethylamino-4-pyrimidinyl)-5-methyl-4-pyrazolyl]-2-trans-propen-1-yl]-9-fluoro-2,3,4,4a,5,6-hexahydro-1H-pyrazino[2,1-c]-1,4-benzoxazine Hydrochloride] | 0.00537 µg/mL |  |  |
| Cc1c(/C=C/CN2CCN3c4ccccc4CCC3C2)cnn1-c1cc(N(C)C)nc(N)n1 (single isomer, unassigned; isomer a) [Example 67, 3-[3-[1-(2-Amino-6-dimethylamino-4-pyrimidinyl)-5-methyl-4-pyrazolyl]-2-trans-propen-1-yl]-2,3,4,4a,5,6-hexahydro-1H-pyrazino[1,2-a]quinoline Hydrochloride (Isomer A)] |  |  | GI50, concentration of the compound which showed 50% inhibition on cell growth as compared with a control group, PC-12 (Tumor cells PC-12): 66.2 ng/mL |
| Cc1c(/C=C/CN2CCN3c4cc(F)ccc4CCC3C2)cnn1-c1cc(N(C)C)nc(N)n1.Cl (single isomer, unassigned; isomer a) [Example 69, 3-[3-[1-(2-Amino-6-dimethylamino-4-pyrimidinyl)-5-methyl-4-pyrazolyl]-2-trans-propen-1-yl]-9-fluoro-2,3,4,4a,5,6-hexahydro-1H-pyrazin[1,2-a]quinoline Hydrochloride (Isomer A)] | 0.0246 µg/mL |  |  |
| Cc1c(/C=C/CN2CCN3c4ccccc4CCC3C2)cnn1-c1cc(N(C)C)nc(N)n1 (single isomer, unassigned; isomer b) [Example 68, 3-[3-[1-(2-Amino-6-dimethylamino-4-pyrimidinyl)-5-methyl-4-pyrazolyl]-2-trans-propen-1-yl]-2,3,4,4a,5,6-hexahydro-1H-pyrazino[1,2-a]quinoline Hydrochloride (Isomer B)] |  |  | GI50, concentration of the compound which showed 50% inhibition on cell growth as compared with a control group, PC-12 (Tumor cells PC-12): 9.16 ng/mL |
| Cc1c(/C=C/CN2CCN(c3cc(Cl)cc(Cl)c3)CC2)cnn1-c1ncccc1Cl.Cl [Example 7] | 0.237 µg/mL | 0.0382 µg/mL |  |
| COc1cccnc1-n1ncc(/C=C/CN2CCN(c3cc(Cl)cc(Cl)c3)CC2)c1C.Cl [Example 13, 3-[4-(3,5-Dichlorophenyl)-1-piperazinyl]-1-[1-(3-methoxy-2-pyridyl)-5-methyl-4-pyrazolyl]-1-trans-propene Hydrochloride] | 0.0383 µg/mL | 0.00493 µg/mL |  |
| Cc1c(/C=C/CN2CCN(c3cc(F)cc(F)c3)CC2)cnn1-c1cc(N)nc(N)n1.Cl [Example 58, 1-[1-(2,6-Diamino-4-pyrimidinyl)-5-methyl-4-pyrazolyl]-3-[4-(3,5-difluorophenyl)-1-piperazinyl]-1-trans-propene Hydrochloride] | 0.0134 µg/mL |  |  |

Further lines, with some results ahead:

| GI50 (Tumor cells PC-12) | GI50 (Tumor cells PC-6) | Structure (SMILES) | further results |
| --- | --- | --- | --- |
| 0.035 µg/mL |  | Cc1c(/C=C/CN2CCN3c4ccccc4CC3C2)cnn1-c1cc(N(C)C)nc(N)n1 (racemic) [Example 72, (+/−)-2-[3-[1-(2-Amino-6-dimethylamino-4-pyrimidinyl)-5-methyl-4-pyrazolyl]-2-trans-propen-1-yl]-1,2,3,4,10,10a-hexahydropyrazino[1,2-a]indole Hydrochloride] |  |
| 0.0101 µg/mL (≈ 0.0218 µM) |  | Cc1c(/C=C/CN2CCN3c4cc(F)ccc4CCC3C2)cnn1-c1cc(N(C)C)nc(N)n1 (single isomer, unassigned; isomer b) [Example 70, 3-[3-(1-(2-Amino-6-dimethylamino-4-pyrimidin-yl)-5-methyl-4-pyrazolyl)-2-trans-propen-1-yl]-9-fluoro-2,3,4,4a,5,6-hexahydro-1H-pyrazino[1,2-a]quinoline (Isomer B)] |  |
| 0.0913 µg/mL | 0.0106 µg/mL | Cc1c(/C=C/CN2CCN(c3cc(F)cc(Cl)c3)CC2)cnn1-c1ncccc1Cl.Cl [Example 5, 3-[4-(3-Chloro-5-fluorophenyl)-1-piperazinyl]-1-[1-(3-chloro-2-pyridyl)-5-methyl-4-pyrazolyl]-1-trans-propene Hydrochloride] |  |
| 0.0347 µg/mL | 0.00879 µg/mL | Cc1c(/C=C/CN2CCN(c3cc(F)cc(F)c3)CC2)cnn1-c1ncccc1Cl.Cl [Example 6, 1-[1-(3-Chloro-2-pyridyl)-5-methyl-4-pyrazolyl]-3-[4-(3,5-difluorophenyl)-1-piperazinyl]-1-trans-propene Hydrochloride] |  |
| 0.21 µg/mL | 0.0373 µg/mL | Cc1c(/C=C/CN2CCN(c3cccc(Cl)c3)CC2)cnn1-c1ncccc1Cl.Cl [Example 8, 3-[4-(3-Chlorophenyl)-1-piperazinyl]-1-[1-(3-chloro-2-pyridyl)-5-methyl-4-pyrazolyl]-1-propene Hydrochloride] |  |
| 0.011 µg/mL |  | CNc1cc(-n2ncc(/C=C/CN3CCN(c4cc(F)cc(F)c4)CC3)c2C)nc(N)n1.Cl [Example 59, 1-[1-(2-Amino-6-methylamino-4-pyrimidinyl)-5-methyl-4-pyrazolyl]-3-[4-(3,5-difluorophenyl)-1-piperazinyl]-1-trans-propene Hydrochloride] |  |
| 0.0207 µg/mL |  | Cc1c(/C=C/CN2CCN(c3cc(F)cc(F)c3)CC2)cnn1-c1nc(N)nc(N(C)C)n1.Cl [Example 60, 1-[1-(2-Amino-4-dimethylamino-1,3,5-triazin-6-yl)-5-methyl-4-pyrazolyl]-3-[4-(3,5-difluorophenyl)-1-piperazinyl]-1-trans-propene Hydrochloride] |  |
